Ten compounds from ChEMBL document CHEMBL5230160, “Chemotherapeutics for Toxoplasma gondii: Molecular Biotargets, Binding Modes, and Structure-Activity Relationship Investigations” (J Med Chem, 2021) can be followed below.

Series [1] concerns Toxoplasma gondii. The experiment in a line: Antiparasitic activity against Toxoplasma gondii RH tachyzoites infected in mouse BV-2 cells assessed as parasitic growth inhibition at 100 ug/ml by inverted fluorescence microscopic analysis relative to control. The format is functional. On the set-up: scale not given: the % may be the effect or the level left. To be noted: dose 100 µg/ml.

The target of another series is Histone deacetylase 1 (Homo sapiens, UniProt Q13547). Description: Inhibition of HDAC1 in human HeLa nuclear extract incubated for 30 mins by fluorescence based analysis. The format is cell-free.
Series [2] deals with Toxoplasma gondii. Description: Antiparasitic activity against Toxoplasma gondii type I infected in human foreskin fibroblast incubated for 24 hrs by Hoechst staining based microscopic analysis. The format is functional, organism-based.
The subject of series [3] is Toxoplasma gondii. Description: Antiparasitic activity against Toxoplasma gondii type II infected in human foreskin fibroblast incubated for 24 hrs by Hoechst staining based microscopic analysis. Type of series: functional, organism-based.
Series [4] concerns Toxoplasma gondii. Description: Antiparasitic activity against Toxoplasma gondii RH tachyzoites infected in human foreskin fibroblast at 1 uM incubated for 24 hrs by phase-contrast microscopy relative to control. Type of series: functional.
The test system of series [5] is Toxoplasma gondii. Description: Antiparasitic activity against Toxoplasma gondii infected in African green monkey Vero cells assessed as parasitic growth inhibition incubated for 24 hrs by PCR method. The format is functional, organism-based.
In series [6] the test system is Toxoplasma gondii. Description: Antiparasitic activity against Toxoplasma gondii tachyzoites. Type of series: functional, organism-based. As to conditions: Toxoplasma gondii; read-out: EC50.
Series [7] relates to Toxoplasma gondii. Description: Antiparasitic activity against Toxoplasma gondii infected in mouse at 50 mg/kg assessed as reduction in parasitic growth. Type of series: functional. On the set-up: scale not given: the % may be the effect or the level left.
The target of a further series is T1, Dihydrofolate reductase (Homo sapiens, UniProt P00374).
T1 sequence (P00374 whole entry): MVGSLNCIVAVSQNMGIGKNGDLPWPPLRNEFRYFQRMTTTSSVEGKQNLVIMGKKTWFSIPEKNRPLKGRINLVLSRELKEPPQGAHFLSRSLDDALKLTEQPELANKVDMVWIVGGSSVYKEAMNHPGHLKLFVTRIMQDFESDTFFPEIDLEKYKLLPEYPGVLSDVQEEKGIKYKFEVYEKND
Description: Inhibition of human DHFR.

Series [8] is described as follows: Inhibition of Toxoplasma gondii DHFR.
Series [9] is described as follows: Inhibition of Toxoplasma gondii GST-taggged IF2Kalpha in presence of ATP by ADP-Glo kinase assay.
The subject of series [10] is Toxoplasma gondii. Description: Antiparasitic activity against Toxoplasma gondii RH tachyzoites infected in HFF cells in presence of CPRG by crystal violet staining based analysis. Type of series: functional, organism-based.
Series [11] has as its system Toxoplasma gondii. Description: Antiparasitic activity against Toxoplasma gondii infected in HFF cells incubated for 3 days by absorbance based analysis. The format is functional, organism-based. To be noted: 72 h.
Series [12] relates to Toxoplasma gondii. Description: Antiparasitic activity against Toxoplasma gondii infected in CF-1 mouse. The format is functional.
Series [13] relates to Toxoplasma gondii. Description: Antiparasitic activity against Toxoplasma gondii. The format is functional, organism-based.
Series [14] is described as follows: Inhibition of Toxoplasma gondii HDAC3.
In series [15] the test system is Toxoplasma gondii. Description: Antiparasitic activity against Toxoplasma gondii infected in HFF cells assessed as parasitic growth inhibition by MTT assay. The format is functional, organism-based.
A short description of series [16]: Selectivity index, ratio of IC50 for inhibition of Toxoplasma gondii HDAC3 to IC50 for antiparasitic activity against Toxoplasma gondii infected in HFF cells. The format is toxicity, cell-based. To be noted: human.

SMILES strings stand for the structures. Converted amounts (≈) assume the structure as drawn.

Sequence of Histone deacetylase 1 (Q13547 whole entry): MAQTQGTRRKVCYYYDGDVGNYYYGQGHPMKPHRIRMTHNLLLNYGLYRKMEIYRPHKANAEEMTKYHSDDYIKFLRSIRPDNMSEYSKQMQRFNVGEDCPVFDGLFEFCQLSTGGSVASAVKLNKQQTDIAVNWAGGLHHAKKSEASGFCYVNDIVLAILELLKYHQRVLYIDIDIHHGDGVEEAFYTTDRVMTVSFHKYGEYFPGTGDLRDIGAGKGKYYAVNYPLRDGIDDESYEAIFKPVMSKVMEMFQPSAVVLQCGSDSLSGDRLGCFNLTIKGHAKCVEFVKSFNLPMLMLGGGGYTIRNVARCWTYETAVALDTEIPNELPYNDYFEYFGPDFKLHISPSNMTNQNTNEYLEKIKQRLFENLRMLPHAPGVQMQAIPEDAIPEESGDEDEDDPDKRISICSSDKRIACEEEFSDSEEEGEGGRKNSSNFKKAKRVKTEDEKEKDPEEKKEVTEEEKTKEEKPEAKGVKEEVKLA

Consider `CC(C)=CCC[C@](C)(O)[C@H]1CC[C@]2(C)[C@@H]1[C@H](O)C[C@@H]1[C@@]3(C)CC[C@H](O[C@@H]4O[C@H](CO)[C@@H](O)[C@H](O)[C@H]4O)C(C)(C)[C@@H]3CC[C@]12C` [GINSENOSIDE RH2], for which the Activity in the series on Toxoplasma gondii [1] is 63.4%.
As to `COc1cccc(CC(=O)Nc2ccc(C(=O)NO)cc2)c1`, the IC50 at Histone deacetylase 1 came out at 0.495 µM; with Toxoplasma gondii [2], 0.35 µM; in the series on Toxoplasma gondii [3], 2.27 µM.
Consider `CCCCCCCCCCCCc1c(C)n(O)c2ccc(OCCN(C)C)cc2c1=O`, for which the Activity with Toxoplasma gondii [4] is given as 38%.
As to `C=CCc1cc(OC)c(O[C@@H](C)[C@H](O)c2ccc(O)c(OC)c2)c(OC)c1`, in the series on Toxoplasma gondii [5], the EC50 stood at 32.4 µg/mL (≈ 86.6 µM).
On to `C/C=C/c1cc(OC)c2c(c1)[C@@H](C)[C@H](c1ccc3c(c1)OCO3)O2` [LICARINE B], for which the EC50 with Toxoplasma gondii [6] was found to be 14 µg/mL (≈ 43.3 µM). For the same compound, the Activity in the series on Toxoplasma gondii [7] is on record as 90%.
Take `COc1ccc(OC)c(CN(C)c2cnc3nc(N)nc(N)c3c2)c1`: the IC50 against Dihydrofolate reductase was 0.026 µM; in [8], 0.029 µM.
For the compound `Cn1cc(-c2ccc3c(c2)CCN3C(=O)Cc2cccc(C(F)(F)F)c2)c2c(N)ncnc21`, the IC50 in series [9] amounted to 0.0004 µM; in the series with Toxoplasma gondii [10], 0.62 µM.
In the case of `O=C1C(O)=C([C@H]2CC[C@H](c3ccc(Cl)cc3)CC2)C(=O)c2ccccc21` [ATOVAQUONE], the EC50 in the series on Toxoplasma gondii [11] came out at 0.032 µM. The ED50 with Toxoplasma gondii [12] worked out at 2.53 mg/kg/day. In addition, the IC50 in the series with Toxoplasma gondii [13] is 0.0024 µM.
In series [14], `CC[C@]1(C)NC(=O)[C@H](CCCCCC(=O)[C@@H](C)O)NC(=O)[C@H]2CCCN2C(=O)[C@H](Cc2ccccc2)NC1=O` registered an IC50 of 0.022 µM.
With `CC[C@]1(C)NC(=O)[C@H](CCCCCC(=O)[C@@H](C)OC(=S)Oc2ccccc2)NC(=O)[C@H]2C[C@H](C)CN2C(=O)[C@H](Cc2ccccc2)NC1=O`, the EC50 with Toxoplasma gondii [15] stood at 0.0113 µM. In [16], the “Ratio IC50” value was 47.7.
